Columns and labels:
Solubility assessment = type: physicochemical
Source text: (§1) Within the pharmaceutical research and development field, the investigation of a suitable solid-state form represents a crucial step. Investigating a solid-state form comprises several decisions, mainly the investigation of an anhydrous, salt or co-crystal form and the investigation of a polymorph of the respective anhydrous, salt or co-crystal. During a lead optimization program, several properties of research compounds are optimized, typically leading to one or a few candidates that continue into exploratory development programs. Typically, in the assessment and optimization of physical chemical parameters during lead optimization, the main focus is on solubility. […] Beyond the optimization of solubility, further physical chemical parameters, such as (1) melting point, (2) thermal behavior, (3) hygroscopicity, (4) crystal habit, (5) polymorphic behavior or physical stability, (6) impurity profile, and (7) chemical stability of the anhydrous or salt form, must be borne in mind when investigating the salt. The melting point of a drug, either as a free base, acid or salt form, should be higher than a certain threshold to allow processing steps such as drying or tabletting. The assessment of thermal behavior, which is typically done by thermogravimetry (TGA) and differential scanning calorimetry (DSC), also includes solid-solid phase transitions. […]

KRAS^G12C tumors [1] = details: preclinical analyses, combination; cited from earlier work
tumors = details: first dosing cohorts; cited from earlier work
KRAS^G12C tumors [2] = details: alone as well as in combination with immune-checkpoint inhibitors; cited from earlier work
[3] = Hygroscopicity (moisture uptake versus relative humidity); type: physicochemical
Source text: as §1, with “transitions. These may be either enantiotropic or monotropic and can be related to the conversion of one polymorph to another or one pseudo-polymorph to another pseudo-polymorph—e.g. a lower solvate or hydrate—or a true polymorph. Hygroscopicity plays a key role in the evaluation of solid-state forms, as this property is highly relevant for many process steps such as drying, storage, blending, granulation, to name but a few. Hygroscopicity can be investigated by dynamic vapor sorption (DVS). Basically, this technique yields information on the amount of moisture that is taken up by the compound at a certain relative humidity level.” for “transitions.”

[4] = Solid state physical and chemical stability on storage (HPLC, XRPD, DSC, TGA); type: physicochemical; details: 14 weeks at 25° C./60% RH, 40° C./75% RH, 40° C./ambient RH, and 60° C./ambient RH
[5] = Excipient compatibility study in 3 prototype blends; type: physicochemical; details: 3 prototype blends stored for 4 weeks at 40° C./75% RH
Experimental: (§2) Furthermore, crystalline anhydrous Form I was stable in an excipient compatibility study in 3 prototype blends that were stored for 4 weeks at 40° C./75% RH. Crystalline anhydrous Form I was also stable to ultraviolet and visible light in the solid state.

[6] = Stability to ultraviolet and visible light in the solid state; type: physicochemical
Experimental: as §2

[7] = Polymorph conversion upon heating or slurrying (thermodynamic stability of forms); type: physicochemical
Experimental: Solutions of the compounds of the disclosure were prepared by adding enough solids to a given solvent so that excess solids were present. All forms described below can be obtained from various solvents, including, but not limited, to the specific solvents described in the Examples. The mixture was then agitated in a sealed vial at either ambient or elevated temperature. After a given amount of time, the solids were isolated by vacuum or centrifuge filtration and analyzed.
The crystalline anhydrous Form II and III described herein below convert to crystalline anhydrous Form I upon heating or slurrying.
Crystalline anhydrous Form III melts at 180° C.

In the case of `C=CC(=O)N1CCN(c2nc(=O)n(-c3c(C)ccnc3C(C)C)c3nc(-c4c(O)cccc4F)c(F)cc23)[C@@H](C)C1` (atropisomer, axis not shown) [Compound 1, 6-fluoro-7-(2-fluoro-6-hydroxyphenyl)-1-(4-methyl-2-(2-propanyl)-3-pyridinyl)-4-((2S)-2-methyl-4-(2-propenoyl)-1-piperazinyl)pyrido[2,3-d]pyrimidin-2 (1H)-one], the solubility (Solubility assessment) is reported as “good solubility features”.
In the case of `C=CC(=O)N1CCN(c2nc(=O)n(-c3c(C)ccnc3C(C)C)c3nc(-c4c(O)cccc4F)c(F)cc23)[C@@H](C)C1` [Compound 1, 6-fluoro-7-(2-fluoro-6-hydroxyphenyl)-1-(4-methyl-2-(2-propanyl)-3-pyridinyl)-4-((2S)-2-methyl-4-(2-propenoyl)-1-piperazinyl)pyrido[2,3-d]pyrimidin-2 (1H)-one], the “effect on anti-tumor efficacy of chemotherapy and targeted agents” value (KRAS^G12C tumors [1]) is given as “improved the anti-tumor efficacy of chemotherapy and targeted agents”, the “anti-tumor activity in clinical trials” value (tumors) is given as “demonstrated anti-tumor activity” and the “tumor outcome in immune-competent mice” value (KRAS^G12C tumors [2]) is given as “produced durable cures”.
With `C=CC(=O)N1CCN(c2nc(=O)n(-c3c(C)ccnc3C(C)C)c3nc(-c4c(O)cccc4F)c(F)cc23)[C@@H](C)C1` [Form I, 6-fluoro-7-(2-fluoro-6-hydroxyphenyl)-1-(4-methyl-2-(2-propanyl)-3-pyridinyl)-4-((2S)-2-methyl-4-(2-propenoyl)-1-piperazinyl)pyrido[2,3-d]pyrimidin-2 (1H)-one] the moisture absorbed ([3]; between 0 and 90% RH at 25° C.) was 0.5-1.0 % wt, the “physical and chemical stability in the solid state (no degradation peaks by HPLC, no changes in XRPD, DSC, TGA)” value [4] was “physically and chemically stable” and the “stability in excipient compatibility study” value [5] was “stable”. The “stability to ultraviolet and visible light” value [6] was “stable” and the “thermodynamic stability among polymorphs identified in the screening process” value ([7]; polymorph and salt screen) was “most thermodynamically stable polymorph”.
With `C=CC(=O)N1CCN(c2nc(=O)n(-c3c(C)ccnc3C(C)C)c3nc(-c4c(O)cccc4F)c(F)cc23)[C@@H](C)C1` [Form II, 6-fluoro-7-(2-fluoro-6-hydroxyphenyl)-1-(4-methyl-2-(2-propanyl)-3-pyridinyl)-4-((2S)-2-methyl-4-(2-propenoyl)-1-piperazinyl)pyrido[2,3-d]pyrimidin-2 (1H)-one] the moisture absorbed ([3]; between 0 and 90% RH at 25° C.) was 2-2.5 % wt, the form conversion ([7]; slurrying in water at 90° C. for 1 hour) was “converts to crystalline anhydrous Form I” and the form conversion ([7]; upon heating and recrystallization at 193° C.) was “converts to crystalline anhydrous Form I”.
For `C=CC(=O)N1CCN(c2nc(=O)n(-c3c(C)ccnc3C(C)C)c3nc(-c4c(O)cccc4F)c(F)cc23)[C@@H](C)C1` [Form III, 6-fluoro-7-(2-fluoro-6-hydroxyphenyl)-1-(4-methyl-2-(2-propanyl)-3-pyridinyl)-4-((2S)-2-methyl-4-(2-propenoyl)-1-piperazinyl)pyrido[2,3-d]pyrimidin-2 (1H)-one], the moisture absorbed ([3]; between 0-95% RH at 25° C.) was 7.0 % wt and the form conversion ([7]; upon melting and recrystallization at 220° C.) was “converts to crystalline anhydrous Form I”.

— patent US12415806B1, “Solid state forms” (AMGEN INC., priority 2019, dated 2025)
